Three compounds from US20100105707A1, “METHOD OF TREATING OR PREVENTING OXIDATIVE STRESS-RELATED DISEASE” (The United States of America, priority 2006, published 2010) can be followed below.

Values after ≈ are worked out from the molar mass of the structure shown.

A word on the solubility: it is the concentration that dissolves in the medium under given conditions. A higher solubility goes with a readily soluble substance.

Data set [1] has as its system cultured hippocampal neurons. The data set is described as follows: Oxygen and glucose deprivation (OGD) of cultured hippocampal neurons. In kind it is cell-based, rat. Conditions: compared to neurons in control cultures; FIG. 2. How it is done: FIG. 2 illustrates that compounds of formula (I) protect cultured hippocampal neurons against ischemia-like conditions in an embodiment of the invention. Neuronal survival is quantified and values are the mean and SEM (n=8-10 cultures). *p<0.05 compared to the vehicle/OGD cultures. Synaptosomes are prepared from the cerebral cortex of 2-3 month-old adult male Sprague-Dawley rats and are cryopreserved using methods described previously (Begley et al., Brain Res. Protoc., 3, 76-82 (1998)). After thawing, cryopreserved synaptosomes are washed twice with Locke's buffer and plated in 24-well plates at a protein concentration of 250 μg per well. After a 30 min period to permit attachment of the synaptosomes to the substrate, synaptomoses are incubated for 1 h with compounds of formula (I) (1-10 μM), and then exposed for 4 h to freshly prepared 50 μM Fe^2+ (FeSO4). After an additional 30 min incubation in the presence of 10 μM dihydrorhodamine 123 (DHR), a probe for ROS which fluoresces when oxidized (Keller et al., J. Neurochem., 69, 273-284 (1997)), the synaptosomes are washed twice with Locke's buffer and levels of fluorescence are quantified using a fluorescence plate reader (488 nm excitation and 510 emission wavelengths). Fluorescence values for wells exposed to experimental treatments are expressed as a percentage of the mean value for untreated control wells. […] Methods for preparation and maintenance of cultures of PC12 cells and primary embryonic rat hippocampal neurons have been described previously (Furukawa et al., J. Neurosci., 17, 8178-8186 (1997) and Chan et al., J. Biol. Chem., 279, 28733-28743 (2004)). Cells are plated into polyethylenimine-coated plastic 96-well culture plates containing Neurobasal medium with B27 supplements. Experiments are performed in 7-8 day-old cultures (hippocampal neurons) or Dulbecco's modified eagle's medium (DMEM) with 10% fetal bovine serum (PC12 cells). […] Cell viability is quantified by counting viable neurons in premarked microscope fields prior to and following experimental treatment and then calculating percent survival.

Data set [2] in a line: Water solubility in cold water. In kind it is physicochemical. As for the experimental part:
Commercially available derivatives are obtained from Sigma-Aldrich (St. Louis, Mo.). The methods used for the synthesis of methyl- and sulfur-derivatives of uric acid are similar to those described previously (Beaman et al., J. Org. Chem., 27, 986-990 (1962) and Maruyama et al., Nucleosides, Nucleotides, Nucleic Acids, 19, 1193-1203 (2000)) and structures are confirmed by ^13C nuclear magnetic resonance (NMR) and ultra-violet (UV) spectral analyses. Uric acid analogs are assayed by high performance liquid chromatography (HPLC) and found to be of >97% purity.

For data set [3], the system named is mouse model of focal ischemic stroke. The data set is described as follows: Focal cerebral ischemia-reperfusion (middle cerebral artery occlusion) model. Format: in vivo, C57BL/6 mice. Conditions: administered 1 h after ischemia onset; for functional outcome (neurological deficit score): FIG. 5A; for brain damage: FIG. 5B. As for the experimental part:
FIG. 4 illustrates that a compound of formula (I) improves functional outcome (e.g., ambulation) and reduces brain damage in a mouse model of focal ischemic stroke in an embodiment of the invention. In FIG. 4A neurological function is scored at 24, 48 and 72 hours post-stroke. In FIG. 4B infarct volume is quantified at 72 hours post-stroke. Values are the mean and SEM (n=8-12 mice). *p<0.001 compared to sham. +p<0.01 compared to vehicle.
FIG. 5 illustrates that compounds of formula (I) improve functional outcome and reduces brain damage in a mouse model of focal ischemic stroke in an embodiment of the invention. In FIG. 5A, neurological function is scored at 24, 48 and 72 hours post-stroke. In FIG. 5B, infarct volume is quantified at 72 hours post-stroke. Values are the mean and SEM (n=8-12 mice). *p<0.001 compared to sham. +p<0.01 compared to vehicle.
Three month-old male C57BL/6 mice are maintained on a 12 h light/12 h dark cycle with continuous access to food and water. The method for subjecting the mice to middle cerebral artery occlusion-reperfusion has been described previously (Arumugam et al., Am. J. Physiol. Heart Circ. Physiol., 287, H2555-2560 (2004)). Mice are anesthetized with isofluorane, a midline incision is made in the neck, and the left external carotid and pterygopalatine arteries are isolated and ligated with 5-0 silk thread. The internal carotid artery (ICA) is occluded at the peripheral site of the bifurcation of the internal carotid artery and the pterygopalatine artery with a small clip and the common carotid artery is ligated with 5-0 silk thread. The external carotid artery is cut, and a 6-0 nylon monofilament with a tip that is blunted (0.2-0.22 mm) with a coagulator is inserted into the external carotid artery. After the clip at the ICA is removed, the nylon thread is advanced into the middle cerebral artery until light resistance is felt. The nylon thread and the common carotid artery ligature are removed after 1 h of occlusion to initiate reperfusion. In the sham group, these arteries are visualized but not disturbed. Mice are administered either uric acid analogs of formula (I) or vehicle (dimethylsulfoxide) by infusion into the femoral vein (10 μl infused over a 2 min period) either 30 min prior to or 60 min after the onset of middle cerebral artery (MCA) occlusion. In a separate set of experiments anesthetized animals from all groups (4-6 mice per group) undergo cerebral blood flow (CBF) measurements using a laser Doppler perfusion monitor. All blood flow measurements are conducted with the mouse fixed in a plastic frame with the probe placed in the region of cerebral cortex perfused by the middle cerebral artery. These procedures are approved by the National Institute on Aging Animal Care and Use Committee.
The functional consequences of focal cerebral ischemia-reperfusion injury are evaluated by using a five-point neurological deficit score (0, no deficit; 1, failure to extend right paw; 2, circling to the right; 3, falling to the right; and 4, unable to walk spontaneously) and are assessed in a blinded fashion. At 72 h of reperfusion, the mice are killed with a lethal dose of isofluorane. The brains are immediately removed and placed into PBS (4° C.) for 15 min, and 2-mm coronal sections are cut with a tissue cutter. The brain sections are stained with 2% 2,3,5-triphenyltetrazolium chloride in phosphate buffer at 37° C. for 15 min. The stained sections are photographed, and the digitized images are used for analysis. The borders of the infarct in each brain slice are outlined and the area quantified using a NIH image 6.1 software. To correct for brain swelling, the infarct area is determined by subtracting the area of undamaged tissue in the left hemisphere from that of the intact contralateral hemisphere. Infarct volume is calculated by integration of infarct areas for all slices of each brain.

Data set [4] can be described thus: Pharmacokinetics: plasma and brain levels after intravenous administration. Format: in vivo, C57BL/6 mice. Conditions: mice; for Kp: male, C57BL/6, mouse, brain (cerebral cortical tissue) / plasma, early time points (15-30 min), read-out: brain tissue concentration as percentage of plasma concentration; for detection in the brain: equimolar to 10 mg/kg uric acid, 15, 30, 60 and 120 min; for brain concentration time course versus plasma: through the 120 min time point. As for the experimental part:
Mice are administered intravenously 10 mg/kg ([…]) of uric acid as a reference compound and equimolar doses of its analogs (sUA4-2,6,8 trithio uric acid, 12.9 mg/kg; mUA2-1,7 dimethyl uric acid, 11.7 mg/kg; sUA2-6,8 dithio uric acid, 11.9 mg/kg). Three month-old male C57BL/6 mice are injected with a compound and are euthanized 15, 30, 60 or 120 min later (1 mouse/time point/compound). Blood and brain tissues are rapidly removed, frozen on dry ice and kept at −80° C. before quantification of uric acid analogs. Plasma and cerebral cortical tissues are extracted in 10 volumes of 0.5 M perchloric acid and 1 mM ethylenediamine tetraacetic acid (EDTA). Levels of uric acid analogs in the extracts are quantified by HPLC methods employing a 25 cm RP C18 column, 25 mM KH2PO4 buffer (pH=4.6) with 1 ml/min flow rate and UV diode array detection.
Mice that are administered mUA2, sUA2 or sUA4 intravenously are euthanized at increasing time points (15, 30, 60 and 120 min) and levels of the compounds in plasma and brain tissue are measured.

In data set [5] the test system is primary hippocampal neurons. The data set can be described thus: Hippocampal neuron death induced by Fe2+. In kind it is cell-based, rat. Conditions: FIGS. 3C and 3D. From the text:
(§1) FIG. 3 illustrates that uric acid and a compound of formula (I) protect cultured neural cells against oxidative and excitotoxic injury in an embodiment of the invention. Cultured PC12 cells are pretreated with uric acid (FIG. 3A) or mUA3 (FIG. 3B). Cultured hippocampal neurons are pretreated with uric acid (FIG. 3C) or mUA3 (FIG. 3D). Cell survival is quantified and values are the mean and SEM of 4-8 cultures. *p<0.05 compared to 0 uric acid or mUA3 concentration.
(§2) Methods for preparation and maintenance of cultures of PC12 cells and primary embryonic rat hippocampal neurons have been described previously (Furukawa et al., J. Neurosci., 17, 8178-8186 (1997) and Chan et al., J. Biol. Chem., 279, 28733-28743 (2004)). Cells are plated into polyethylenimine-coated plastic 96-well culture plates containing Neurobasal medium with B27 supplements. Experiments are performed in 7-8 day-old cultures (hippocampal neurons) or Dulbecco's modified eagle's medium (DMEM) with 10% fetal bovine serum (PC12 cells). Hippocampal neurons and PC12 cells are plated 7 days and 3 days prior to experiments, respectively. […] Cell viability is quantified by counting viable neurons in premarked microscope fields prior to and following experimental treatment and then calculating percent survival. […]

Data set [6] concerns PC12 cells. The data set can be described thus: PC12 cell death induced by MPP+. Conditions: concentrations of 0.1 to 10 μM; FIGS. 3A and 3B. In kind it is cell-based.
Description: as §1, §2

Data set [7] concerns PC12 cells. The data set can be described thus: PC12 cell death induced by Fe2+. Conditions: concentrations of 0.1 to 10 μM; FIGS. 3A and 3B. Format: cell-based.
Description: as §1, §2

Data set [8] relates to ROS in cerebral cortex synaptosomes. The data set can be described thus: Synaptosome antioxidant assay (Fe2+-induced ROS, dihydrorhodamine 123). Conditions: 1-10 μM, 1 h pretreatment, then 50 μM Fe2+ for 4 h; FIG. 1B. Format: cell-based, Sprague-Dawley rats. How it is done: FIG. 1A depicts structures of uric acid and exemplary compounds of formula (I). FIG. 1B illustrates antioxidant activities of uric acid and compounds of formula (I) as quantified using a synaptosome assay in an embodiment of the invention. Levels of reactive oxygen species (ROS) are measured and values are expressed as a percentage of ROS present in Fe^2+-treated control synaptosomes (mean and SEM, n=4 experiments). *p<0.05, **p<0.01 compared to the control value.
Synaptosomes are prepared from the cerebral cortex of 2-3 month-old adult male Sprague-Dawley rats and are cryopreserved using methods described previously (Begley et al., Brain Res. Protoc., 3, 76-82 (1998)). After thawing, cryopreserved synaptosomes are washed twice with Locke's buffer and plated in 24-well plates at a protein concentration of 250 μg per well. […] After an additional 30 min incubation in the presence of 10 μM dihydrorhodamine 123 (DHR), a probe for ROS which fluoresces when oxidized (Keller et al., J. Neurochem., 69, 273-284 (1997)), the synaptosomes are washed twice with Locke's buffer and levels of fluorescence are quantified using a fluorescence plate reader (488 nm excitation and 510 emission wavelengths). Fluorescence values for wells exposed to experimental treatments are expressed as a percentage of the mean value for untreated control wells.

The subject of data set [9] is primary hippocampal neurons. The data set is described as follows: Hippocampal neuron death induced by glutamate excitotoxicity. In kind it is cell-based, rat. Conditions: FIGS. 3C and 3D.
Description: as §1, §2

As to `S=c1[nH]c(=S)c2[nH]c(=S)[nH]c2[nH]1` [sUA4, 2,6,8 trithio uric acid], the “resistance to OGD induced death” value in data set [1] is listed as “significantly more resistant”. Also, the solubility in data set [2] was determined as 3000 µg/mL (≈ 13.9 mM). In [3], the “functional outcome (neurological deficit score)” value was “significantly improve functional outcome” and the brain damage result is given as “decrease brain damage”. Besides, in data set [4], the Kp is around 0.1, the “detection in the brain” value was “detected in the brain at all time points examined” and the “brain concentration time course versus plasma” value is given as “remain elevated while plasma concentrations decrease progressively”.
On to `O=c1[nH]c(=O)c2[nH]c(=O)[nH]c2[nH]1` [uric acid], for which the “protection of primary hippocampal neurons against death induced by Fe2+” value in [5] is “protected”. In addition, in the data set on PC12 cells [6], the “protection of PC12 cells against MPP+” value is on record as “protected”. Further, the “protection of PC12 cells against Fe2+” value in the data set on PC12 cells [7] was “protected”. Besides, in [2], the solubility came out at 100 µg/mL (≈ 0.595 mM). Moreover, the “levels of ROS in synaptosomes” value in data set [8] was “significantly diminished”. For the same compound, the “protection of primary hippocampal neurons against glutamate excitotoxicity” value in data set [9] was “protected”.
Turning to `Cn1c(=O)[nH]c2[nH]c(=O)n(C)c2c1=O` [mUA2, 1,7 dimethyl uric acid], the “resistance to OGD induced death” value in data set [1] is on record as “significantly more resistant”. This compound came in with a solubility in data set [2] of 2000 µg/mL (≈ 10.2 mM). Besides, in data set [3], the “functional outcome (neurological deficit score)” value is given as “significantly improve functional outcome” and the brain damage result is “decrease brain damage”. Moreover, in [4], the Kp was around 0.1, the “detection in the brain” value is recorded as “detected in the brain at all time points examined” and the “brain concentration time course versus plasma” value was “remain elevated while plasma concentrations decrease progressively”.
